Measured values from patent publication US10828250B2, “Topical formulation” (LIMEWAY PHARMA DESIGN LIMITED, priority 2015, dated 2020).

Columns and labels:
[1] = saturated solubility of corticosteroids in liquid silicones and in propylene glycol:glycerol(:water) mixtures; assay type: physicochemical; conditions: for saturated solubility in propylene glycol:glycerol mixtures: as glycerol is added to propylene glycol, FIG. 8; for saturated solubility in propylene glycol:glycerol:water mixtures: as water is added to propylene glycol:glycerol 70:30, FIG. 9; for saturated solubility in liquid silicones: range of liquid silicones including caprylyl methicone, FIG. 1
Experimental: Similarly, active solubility may be reduced in the non-volatile residual phase. […] As glycerol is added to propylene glycol the solubility of FP and MF decreases. […] As water is added to propylene glycol:glycerol 70:30 the solubility of FP and MF decreases. Water may be present in certain embodiments of the formulation or may be present in the residual phase due to uptake of transepidermal water. Although water is a highly volatile solvent, humectant glycols retain water depending upon ambient conditions.

[2] = assay type: physicochemical
Text: As described previously, diffusion coefficient-enhancing excipients (DC enhancers) for use in the present invention commonly comprise alcohol, acid or ester derivatives of C8-C22 hydrocarbons.
In the acid and alcohol series, FIG. 2, as carbon chain length increases, solubility in caprylyl methicone decreases to less than 0.1% w/w at C18, such that these higher carbon chain lengths may be considered unsuitable for use as the DC enhancer in the formulation of the present invention owing to low solubility-dissolution constraints. Conversely, lower carbon chain length acids and alcohols such as C8 and C10 alcohols and C8 and C10 acids may be considered to be far too soluble in hydrocarbyl methyl siloxanes including caprylyl methicone, such that their performance as diffusion coefficient-enhancing excipients would be adversely affected. Similarly, long chain (for instance C14-C16) isopropyl esters are far too soluble in hydrocarbyl methyl siloxanes such as caprylyl methicone to allow performance as DC enhancers. For both of these classes of DC enhancer, up to 50% DC enhancer would be required to be at or near saturation in the non-volatile residual phase. In contrast, the C12-C14 acids and C12 alcohol have appropriate solubility in caprylyl methicone.
Conversely, from C16-C22 solubility is too low to allow adequate performance. […]

Molecule	saturated solubility in propylene glycol:glycerol mixtures [1]	saturated solubility in propylene glycol:glycerol:water mixtures [1]	saturated solubility in liquid silicones [1]	amount to saturate caprylyl methicone (solubility) [2] [%]	amount to saturate propylene glycol (solubility) [2] [%]
CCC(=O)O[C@]1(C(=O)SCF)[C@H](C)C[C@H]2[C@@H]3C[C@H](F)C4=CC(=O)C=C[C@]4(C)[C@@]3(F)[C@@H](O)C[C@@]21C [fluticasone propionate]	decreases	decreases	appropriately low		
C[C@@H]1C[C@H]2[C@@H]3CCC4=CC(=O)C=C[C@]4(C)[C@@]3(Cl)[C@@H](O)C[C@]2(C)[C@@]1(OC(=O)c1ccco1)C(=O)CCl [mometasone furoate]	decreases	decreases	appropriately low		
myrystyl alcohol [C14 alcohol]				2.30	2.44
